# Assay results from patent US20080081021A1, “Manganese-enhanced magnetic resonance imaging of neurons using electrical stimulation” (priority 2006, published 2008).
# Read-outs that look alike come from different tables or passages of the source.
# Columns and labels:
# [1] = system: rat spinal cord (gray matter, white matter, cortical spinal tract); details: for *T1CST: cortical spinal tract in spinal cord; for *T1CST / T1GM / T1WM: 1 M MnCl2 0.2 μL bilateral intracortical, 9.4 T; for T1GM: gray matter of spinal cord, mean±SD, four rats; for T1WM: white matter of spinal cord
# Procedure: (§1) The experiments were conducted on twelve Sprague-Dawley rats weighing between 300 and 350 g under a protocol approved by the University of Kansas Medical Center Institutional Animal Care and Use Committee. Six rats were studied without electrical stimulation in the cortex and served as the control group. The remaining six rats formed the stimulation group.
# The syringe was mounted on a micropositioner attached to a stereotaxic frame. The tip of the glass pipette was lowered perpendicular to the brain surface at the center of the first burr hole and inserted into the cortex through the exposed dura one millimeter below the pial surface. The syringe was emptied slowly to deliver 0.2 μL of the solution over a period of five minutes. To prevent backflow of solution, the pipette was left in place for another five minutes prior to withdrawal. This procedure was repeated for the contralateral motor area through the second burr hole.
# To eliminate this problem, the burr holes in the skull of the rat from the stimulation group were first carefully drained of fluid. Electrical stimulation was then applied through a 1 mm diameter stainless steel electrode with the titanium screw serving as reference. The electrode was connected to a DS7 Digitimer constant current stimulator (Digitimer Ltd., Hertfordshire, England) and lowered through the first burr hole on the same side as the screw until it touched to dura. A Grass S48 stimulator (Grass Medical Instruments, Quincy, Mass.) generated the stimulus pulse sequence used to externally trigger the constant current stimulator. Trains of biphasic stimuli (each phase 0.2 ms, negative first) were applied at 100 Hz for an “on” period of 5 seconds followed by an “off” period of 5 seconds. […] Once threshold was determined, stimulation was applied at approximately twice the threshold for 90 minutes. If the strength of the evoked movement declined noticeably, frequency and current values were increased to maintain a constant motor response. These procedures were repeated for the opposite cortex through a second burr hole. With these settings, the total stimulation time was 180 minutes, 90 minutes for each side of the cortex. Immediately after stimulation, the electrodes were removed, and the skin was closed tightly with suture. The animal was then left to recover in its cage.
# The animals were anesthetized using spontaneous inhalation of 4% isoflurane for induction, followed by a mixture of 1.5% isoflurane, 30% oxygen, and air delivered through a nose mask. The rat's head was stabilized on a Plexigas holder and positioned into a 6 cm inner diameter volume coil for MRI scanning on a 9.4 T horizontal Varian scanner (Varian Inc., Palo Alto, Calif.). While in the scanner, the physiological condition of the rat was monitored using ECG, respiratory and temperature probes that were connected to an MR-compatible small animal monitoring and gating system (Model 1025, SA Instruments, Inc., Stony Brook, N.Y.). The rat's temperature was kept at about 37° C. by circulating warm air with 40% humidity using a 5 cm diameter plastic tube fitted to the back door of the magnet bore.
# The resulting data set consisted of axial images acquired independently at eight different TR values: 50, 100, 250, 500, 750, 2000, 3500, and 6000 ms with averages=10, 6, 6, 2, 2, 2, 2 and 2, respectively, and TE=12 ms. The other acquisition parameters were image matrix=128×128, field-of-view (FOV)=23×23 mm^2 and slice thickness=4 mm. The acquired data were analyzed quantitatively to produce a parametric T1 map of the spinal cord by following the procedures described previously in Bilgen et al., Ex vivo magnetic resonance imaging of rat spinal cord at 9.4 T, Magn. Reson. Imaging 23:601-605 (2005).
# T1-maps were produced for four rats from each of the stimulated and control groups.
# cortical spinal tract = details: 24 hours after injection
# Procedure: as §1
# The syringe was mounted on a micropositioner attached to a stereotaxic frame. The tip of the glass pipette was lowered perpendicular to the brain surface at the center of the first burr hole and inserted into the cortex through the exposed dura one millimeter below the pial surface. […]
# To eliminate this problem, the burr holes in the skull of the rat from the stimulation group were first carefully drained of fluid. […] Once threshold was determined, stimulation was applied at approximately twice the threshold for 90 minutes. […]
# The animals were anesthetized using spontaneous inhalation of 4% isoflurane for induction, followed by a mixture of 1.5% isoflurane, 30% oxygen, and air delivered through a nose mask. […] While in the scanner, the physiological condition of the rat was monitored using ECG, respiratory and temperature probes that were connected to an MR-compatible small animal monitoring and gating system (Model 1025, SA Instruments, Inc., Stony Brook, N.Y.). […]
# [2] = control rats without electrical stimulation
substance,measurement,setting,value
manganese chloride,*T1CST,[1]; [2],1.43 ± 0.09 s
same,*T1CST,[1]; electrically stimulated rats,1.24 ± 0.08 s
same,T1GM,[1]; [2],1.55 ± 0.05 s
same,T1GM,[1]; electrically stimulated rats,1.54 ± 0.06 s
same,T1 in the cortical spinal tract shorter in electrically stimulated rats compared to controls,"[1]; stimulated vs non-stimulated rats, both given MnCl2",about 20%
same,T1WM,[1]; [2],1.53 ± 0.06 s
same,T1WM,[1]; electrically stimulated rats,1.51 ± 0.07 s
same,manganese enhancement of the cortical spinal tract,cortical spinal tract; non-stimulated rat,fades away as the cortical spinal tract approaches the spinal cord
same,labeling of the cortical spinal tract in the spinal cord,cortical spinal tract; with electrical stimulation of the cortex,more robust labeling of the cortical spinal tract in the spinal cord
